The record followed here is patent US9399649B2, “Compounds for treating spinal muscular atrophy” (PTC Therapeutics Inc., priority 2012, dated 2016).

Each structure is given as a SMILES string.

The experiment relates to full length SMN2 minigene mRNA containing SMN2 exon 7. As to the kind of experiment: SMN2 minigene mRNA splicing RT-qPCR assay in cultured cells. The settings on record: for SMN2 minigene FL mRNA relative to vehicle: HEK293H cells with SMN2-A minigene, rising concentrations, 24 hr, FIG. 3; for EC (1.5-fold): Homo sapiens, HEK293-H, HEK293H cells stably transfected with SMN2-A minigene, 24 hours, 7-point concentration curve, concentration giving 1.5-fold full length SMN2 mRNA vs vehicle, read-out: EC1.5x for production of full length SMN2 mRNA. The experiment is classed as cell-based, human. In outline:
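HEK293H cells stably carrying SMN2-A minigene treated 24 h (37 °C) with compound, 7-point 3.16-fold dilution, duplicates. Multiplex RT-qPCR on lysate with exon 7/luciferase primers and exon 7–8 junction probe (minigene-specific). Full-length transcript normalised to GAPDH by modified ΔΔCt, expressed relative to vehicle-treated cells.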
(In general: Real-time PCR tracks product formation cycle by cycle.)

In the case of `Cc1cn2cc(-c3cc4ccc(N5CCN6CCC[C@H]6C5)cc4c(=O)o3)nc2c(C)n1` [Cpd 69, 3-(6,8-dimethylimidazo[1,2-a]pyrazin-2-yl)-7-[(8aS)-hexahydropyrrolo[1,2-a]pyrazin-2(1H)-yl]-1H-isochromen-1-one], the “SMN2 minigene FL mRNA relative to vehicle” value was “increased SMN2 minigene FL mRNA at low concentrations” and the EC (1.5-fold) was not above 0.1 µM.
With `Cc1cn2cc(-c3cc4ccc(N5CCN(C)CC5)cc4c(=O)o3)nc2c(C)n1` [Cpd 65, 3-(6,8-dimethylimidazo[1,2-a]pyrazin-2-yl)-7-(4-methylpiperazin-1-yl)-1H-isochromen-1-one], the “SMN2 minigene FL mRNA relative to vehicle” value was “increased SMN2 minigene FL mRNA at low concentrations” and the EC (1.5-fold) was not above 0.1 µM.
